Measurements reported in ChEMBL document CHEMBL1146722, “Synthesis and antibacterial activity of 6-O-arylpropargyl-9-oxime-11,12-carbamate ketolides” (2004).
≈ marks a conversion by molar mass, not a printed value.

Tests used:
Format in all cases: functional
Haemophilus influenzae = test: In vitro antibacterial activity against Haemophilus influenzae GYR1435
Streptococcus pyogenes [1] = test: In vitro antibacterial activity against Streptococcus pyogenes EES61
Streptococcus pneumoniae [2] = test: In vitro antibacterial activity against Streptococcus pneumoniae 5979
Streptococcus pyogenes [3] = test: In vitro antibacterial activity against Streptococcus pyogenes PIU 2548
Streptococcus pneumoniae [4] = test: In vitro antibacterial activity against Streptococcus pneumoniae 5649
Staphylococcus aureus [5] = test: In vitro antibacterial activity against Staphylococcus aureus NCTC 10649M strain
Streptococcus pyogenes [6] = test: In vitro antibacterial activity against Streptococcus pyogenes 930
Staphylococcus aureus [7] = test: In vitro antibacterial activity against Staphylococcus aureus A5177 strain
Streptococcus pneumoniae [8] = test: In vitro antibacterial activity against Streptococcus pneumoniae ATCC 6303
Staphylococcus aureus [9] = test: In vitro antibacterial activity against Staphylococcus aureus 1775 strain

SMILES | MIC (Haemophilus influenzae) [µg/mL] | MIC (Streptococcus pyogenes [1]) [µg/mL] | MIC (Streptococcus pneumoniae [2]) [µg/mL] | MIC (Streptococcus pyogenes [3]) [µg/mL] | MIC (Streptococcus pneumoniae [4]) [µg/mL] | MIC (Staphylococcus aureus [5]) [µg/mL] | MIC (Streptococcus pyogenes [6]) [µg/mL] | MIC (Staphylococcus aureus [7]) [µg/mL] | MIC (Streptococcus pneumoniae [8]) [µg/mL] | MIC (Staphylococcus aureus [9]) [µg/mL]
CC[C@H]1OC(=O)[C@H](C)C(=O)[C@H](C)[C@@H](OC2O[C@H](C)C[C@H](N(C)C)[C@H]2O)[C@@](C)(OCC#Cc2ccc(-c3nnn(C)n3)s2)C[C@@H](C)/C(=N\OC)[C@H](C)[C@H]2NC(=O)O[C@@]21C (stereo not given in full) | 4 (≈ 4.82 µM) | 0.008 (≈ 0.00964 µM) | 0.5 (≈ 0.602 µM) | 0.125 (≈ 0.151 µM) | 0.06 (≈ 0.0723 µM) | 0.25 (≈ 0.301 µM) | 32 (≈ 38.6 µM) | 0.008 (≈ 0.00964 µM) | 0.008 (≈ 0.00964 µM) | 128 (≈ 154 µM)
CC[C@H]1OC(=O)[C@@](C)(F)C(=O)[C@H](C)[C@@H](OC2O[C@H](C)C[C@H](N(C)C)[C@H]2O)[C@@](C)(OCC#Cc2cnc3ccccc3c2)C[C@@H](C)/C(=N\OC)[C@H](C)[C@H]2NC(=O)O[C@@]21C (stereo not given in full) | 4 (≈ 4.93 µM) | 0.008 (≈ 0.00986 µM) | 0.125 (≈ 0.154 µM) | 0.25 (≈ 0.308 µM) | 0.125 (≈ 0.154 µM) | 0.5 (≈ 0.617 µM) | 0.5 (≈ 0.617 µM) | 0.25 (≈ 0.308 µM) | 0.008 (≈ 0.00986 µM) | 64 (≈ 78.9 µM)
CC[C@H]1OC(=O)[C@H](C)C(=O)[C@H](C)[C@@H](OC2O[C@H](C)C[C@H](N(C)C)[C@H]2O)[C@@](C)(OCC#Cc2ccc(-c3ccccn3)s2)C[C@@H](C)/C(=N\OC)[C@H](C)[C@H]2NC(=O)O[C@@]21C (stereo not given in full) | 4 (≈ 4.85 µM) | 0.008 (≈ 0.0097 µM) | 0.008 (≈ 0.0097 µM) | 0.03 (≈ 0.0364 µM) | 0.008 (≈ 0.0097 µM) | 0.25 (≈ 0.303 µM) | 16 (≈ 19.4 µM) | 0.008 (≈ 0.0097 µM) | 0.008 (≈ 0.0097 µM) | 64 (≈ 77.6 µM)
CC[C@H]1OC(=O)[C@H](C)C(=O)[C@H](C)[C@@H](O[C@@H]2O[C@H](C)C[C@H](N(C)C)[C@H]2O)[C@](C)(OC)C[C@@H](C)C(=O)[C@H](C)[C@H]2N(CCCCn3cnc(-c4cccnc4)c3)C(=O)O[C@]12C [TELITHROMYCIN] | 2 (≈ 2.46 µM) | 0.004 (≈ 0.00493 µM) | 8 (≈ 9.85 µM) | 2 (≈ 2.46 µM) | 0.5 (≈ 0.616 µM) | 0.1 (≈ 0.123 µM) | 8 (≈ 9.85 µM) | 0.1 (≈ 0.123 µM) | 0.004 (≈ 0.00493 µM) | > 100
CC[C@H]1OC(=O)[C@H](C)C(=O)[C@H](C)[C@@H](OC2O[C@H](C)C[C@H](N(C)C)[C@H]2O)[C@@](C)(OCC#Cc2cnc3ccccc3c2)C[C@@H](C)/C(=N\OC)[C@H](C)[C@H]2NC(=O)O[C@@]21C (stereo not given in full) | 4 (≈ 5.04 µM) | 0.008 (≈ 0.0101 µM) | 0.25 (≈ 0.315 µM) | 0.125 (≈ 0.158 µM) | 0.125 (≈ 0.158 µM) | 1 (≈ 1.26 µM) | 1 (≈ 1.26 µM) | 0.25 (≈ 0.315 µM) | 0.008 (≈ 0.0101 µM) | 128 (≈ 161 µM)
CC[C@H]1OC(=O)[C@H](C)C(=O)[C@H](C)[C@@H](OC2O[C@H](C)C[C@H](N(C)C)[C@H]2O)[C@@](C)(OCC#Cc2cnc3cccnc3c2)C[C@@H](C)/C(=N\OC)[C@H](C)[C@H]2NC(=O)O[C@@]21C (stereo not given in full) | 2 (≈ 2.52 µM) | 0.008 (≈ 0.0101 µM) | 1 (≈ 1.26 µM) | 0.06 (≈ 0.0756 µM) | 0.03 (≈ 0.0378 µM) | 1 (≈ 1.26 µM) | 0.5 (≈ 0.63 µM) | 0.008 (≈ 0.0101 µM) | 0.008 (≈ 0.0101 µM) | > 128
CC[C@H]1OC(=O)[C@H](C)C(=O)[C@H](C)[C@@H](OC2O[C@H](C)C[C@H](N(C)C)[C@H]2O)[C@@](C)(OCC#Cc2ccc3nccnc3c2)C[C@@H](C)/C(=N\OC)[C@H](C)[C@H]2NC(=O)O[C@@]21C (stereo not given in full) | 8 (≈ 10.1 µM) | 0.008 (≈ 0.0101 µM) | 0.25 (≈ 0.315 µM) | 0.5 (≈ 0.63 µM) | 0.125 (≈ 0.157 µM) | 0.25 (≈ 0.315 µM) | 8 (≈ 10.1 µM) | 0.008 (≈ 0.0101 µM) | 0.008 (≈ 0.0101 µM) | > 128
CC[C@H]1OC(=O)[C@H](C)[C@@H](O[C@H]2C[C@@](C)(OC)[C@@H](O)[C@H](C)O2)[C@H](C)[C@@H](O[C@@H]2O[C@H](C)C[C@H](N(C)C)[C@H]2O)[C@](C)(O)C[C@@H](C)C(=O)[C@H](C)[C@@H](O)[C@]1(C)O [ERYTHROMYCIN] | 4 (≈ 5.45 µM) | 0.015 (≈ 0.0204 µM) | > 128 | 8 (≈ 10.9 µM) | 4 (≈ 5.45 µM) | 0.5 (≈ 0.681 µM) | > 128 | > 128 | 0.015 (≈ 0.0204 µM) | > 128
CC[C@H]1OC(=O)[C@@](C)(F)C(=O)[C@H](C)[C@@H](OC2O[C@H](C)C[C@H](N(C)C)[C@H]2O)[C@@](C)(OCC#Cc2ccc(-c3nnn(C)n3)s2)C[C@@H](C)/C(=N\OC)[C@H](C)[C@H]2NC(=O)O[C@@]21C (stereo not given in full) | 8 (≈ 9.43 µM) | 0.008 (≈ 0.00943 µM) | 0.25 (≈ 0.295 µM) | 0.5 (≈ 0.59 µM) | 0.125 (≈ 0.147 µM) | 1 (≈ 1.18 µM) | 8 (≈ 9.43 µM) | 0.25 (≈ 0.295 µM) | 0.008 (≈ 0.00943 µM) | 64 (≈ 75.5 µM)
